Reference: patent US7067508B2, “Diaminedithiol derivatives and radiorhenium or radiotechnetium complex thereof; a liver cancer-treating composition comprising the radiorhenium complex and lipiodol; and a kit for preparation of the liver cancer-treating composition” (Seoul National University Industry Foundation, priority 2001, dated 2006)

Assay: Biodistribution of 188Re-labelled compounds in lipiodol solution in mice after tail vein injection
Format: in vivo
Details: mice (ICR)
Experimental: To the ^188Re-labelled reaction mixture prepared in the foregoing Examples 4 to 6, lipiodol (5 ml) was added, mixed well and the solution was centrifuged at 3000 rpm for 10 min. The supernatant was removed and 2 ml saline was added. After mixing well, the resulting solution was centrifuged again at 3000 rpm for 10 min and the supernatant was removed to recover a lower phase of lipiodol.
Mice (ICR) were administered with an injection of ^188Re-labelled compound in lipiodol solution which was prepared in the Example 7 via the tail vein. Radioactivity distributed in tissues and weight of each tissue were measured to calculate the percentage of radioactivity per gram of unit tissue relative to total radioactivity administered.
As radiation accumulation mechanism in the lung and the liver cancer are similar, it is convenient to detect the level of radiation accumulating in the lung of a mouse suffering from liver cancer. […] Therefore, it can be inferred that a radiorhenium complex of a diaminedithiol derivative having a long side chain is effective for treating liver cancer.

CCCCCCCC[N+]12CC[N]3CC(C)(C)[S][188Re-]31(=[O])[S]C(C)(C)C2 (centres unmarked) [^188Re-OTDD]
Biodistribution, radioactivity in Blood (10 min post-injection): 5.2 ± 1.8 percentage of radioactivity per gram
Biodistribution, radioactivity in Fat (10 min post-injection): 3.6 ± 0.7 percentage of radioactivity per gram
Biodistribution, radioactivity in Heart (10 min post-injection): 6.3 ± 1.7 percentage of radioactivity per gram
Biodistribution, radioactivity in Kidney (10 min post-injection): 8.0 ± 1.2 percentage of radioactivity per gram
Biodistribution, radioactivity in Liver (10 min post-injection): 15.1 ± 2.4 percentage of radioactivity per gram
Biodistribution, radioactivity in Lung (10 min post-injection): 138.4 ± 19.8 percentage of radioactivity per gram
Biodistribution, radioactivity in Muscle (10 min post-injection): 1.5 ± 0.2 percentage of radioactivity per gram
Biodistribution, radioactivity in Small intestine (10 min post-injection): 3.6 ± 0.3 percentage of radioactivity per gram
Biodistribution, radioactivity in Spleen (10 min post-injection): 2.6 ± 0.3 percentage of radioactivity per gram
Biodistribution, radioactivity in Stomach (10 min post-injection): 3.5 ± 1.3 percentage of radioactivity per gram
Biodistribution, radioactivity in Blood (30 min post-injection): 3.8 ± 0.4 percentage of radioactivity per gram
Biodistribution, radioactivity in Fat (30 min post-injection): 2.2 ± 0.2 percentage of radioactivity per gram
Biodistribution, radioactivity in Heart (30 min post-injection): 4.4 ± 0.3 percentage of radioactivity per gram
Biodistribution, radioactivity in Kidney (30 min post-injection): 6.6 ± 0.3 percentage of radioactivity per gram
Biodistribution, radioactivity in Liver (30 min post-injection): 21.6 ± 4.9 percentage of radioactivity per gram
Biodistribution, radioactivity in Lung (30 min post-injection): 97.4 ± 20.7 percentage of radioactivity per gram
Biodistribution, radioactivity in Muscle (30 min post-injection): 1.2 ± 0.2 percentage of radioactivity per gram
Biodistribution, radioactivity in Small intestine (30 min post-injection): 8.0 ± 2.0 percentage of radioactivity per gram
Biodistribution, radioactivity in Spleen (30 min post-injection): 2.3 ± 0.1 percentage of radioactivity per gram
Biodistribution, radioactivity in Stomach (30 min post-injection): 12.9 ± 6.6 percentage of radioactivity per gram
Biodistribution, radioactivity in Blood (1 hr post-injection): 3.1 ± 0.5 percentage of radioactivity per gram
Biodistribution, radioactivity in Fat (1 hr post-injection): 1.6 ± 0.4 percentage of radioactivity per gram
Biodistribution, radioactivity in Heart (1 hr post-injection): 2.7 ± 1.0 percentage of radioactivity per gram
Biodistribution, radioactivity in Kidney (1 hr post-injection): 5.6 ± 0.9 percentage of radioactivity per gram
Biodistribution, radioactivity in Liver (1 hr post-injection): 20.1 ± 3.3 percentage of radioactivity per gram
Biodistribution, radioactivity in Lung (1 hr post-injection): 87.0 ± 13.2 percentage of radioactivity per gram
Biodistribution, radioactivity in Muscle (1 hr post-injection): 0.9 ± 0.2 percentage of radioactivity per gram
Biodistribution, radioactivity in Small intestine (1 hr post-injection): 13.0 ± 3.7 percentage of radioactivity per gram
Biodistribution, radioactivity in Spleen (1 hr post-injection): 1.9 ± 0.6 percentage of radioactivity per gram
Biodistribution, radioactivity in Stomach (1 hr post-injection): 11.1 ± 3.1 percentage of radioactivity per gram
Biodistribution, radioactivity in Blood (3 hr post-injection): 2.8 ± 0.3 percentage of radioactivity per gram
Biodistribution, radioactivity in Fat (3 hr post-injection): 1.3 ± 0.4 percentage of radioactivity per gram
Biodistribution, radioactivity in Heart (3 hr post-injection): 1.9 ± 0.4 percentage of radioactivity per gram
Biodistribution, radioactivity in Kidney (3 hr post-injection): 4.0 ± 0.5 percentage of radioactivity per gram
Biodistribution, radioactivity in Liver (3 hr post-injection): 19.7 ± 6.7 percentage of radioactivity per gram
Biodistribution, radioactivity in Lung (3 hr post-injection): 61.6 ± 10.0 percentage of radioactivity per gram
Biodistribution, radioactivity in Muscle (3 hr post-injection): 0.5 ± 0.1 percentage of radioactivity per gram
Biodistribution, radioactivity in Small intestine (3 hr post-injection): 23.4 ± 0.3 percentage of radioactivity per gram
Biodistribution, radioactivity in Spleen (3 hr post-injection): 1.8 ± 0.3 percentage of radioactivity per gram
Biodistribution, radioactivity in Stomach (3 hr post-injection): 15.5 ± 6.6 percentage of radioactivity per gram
Biodistribution, radioactivity in Blood (24 hr post-injection): 0.6 ± 0.0 percentage of radioactivity per gram
Biodistribution, radioactivity in Fat (24 hr post-injection): 0.4 ± 0.1 percentage of radioactivity per gram
Biodistribution, radioactivity in Heart (24 hr post-injection): 0.7 ± 0.1 percentage of radioactivity per gram
Biodistribution, radioactivity in Kidney (24 hr post-injection): 1.5 ± 0.4 percentage of radioactivity per gram
Biodistribution, radioactivity in Liver (24 hr post-injection): 7.3 ± 1.5 percentage of radioactivity per gram
Biodistribution, radioactivity in Lung (24 hr post-injection): 22.8 ± 3.3 percentage of radioactivity per gram
Biodistribution, radioactivity in Muscle (24 hr post-injection): 0.2 ± 0.0 percentage of radioactivity per gram
Biodistribution, radioactivity in Small intestine (24 hr post-injection): 19.8 ± 12.0 percentage of radioactivity per gram
Biodistribution, radioactivity in Spleen (24 hr post-injection): 2.0 ± 2.0 percentage of radioactivity per gram
Biodistribution, radioactivity in Stomach (24 hr post-injection): 3.6 ± 1.8 percentage of radioactivity per gram
